Tests used:
[1] = xn = mol fraction of the nth substance listed; settings: 101.3 kPa, Liquid; for viscosity: Falling or rolling sphere viscometry; for mass density: Vibrating tube method
[2] = refractive index (Na D-line) (dimensionless); xn = mol fraction of the nth substance listed; settings: 298.15 K, 101.3 kPa, Liquid, Standard Abbe refractometry

CC(=O)O.CCCCN [butylammonium acetate] + CCCCO
[1]
Settings | mass density, 293.15 K [kg/m3] | mass density, 298.15 K [kg/m3] | mass density, 303.15 K [kg/m3] | mass density, 308.15 K [kg/m3] | mass density, 313.15 K [kg/m3] | viscosity, 293.15 K [mPa·s] | viscosity, 298.15 K [mPa·s] | viscosity, 303.15 K [mPa·s] | viscosity, 308.15 K [mPa·s] | viscosity, 313.15 K [mPa·s]
x1 = 0.029 | 817.08 | 813.28 | 809.45 | 805.57 | 801.67 | 3.564 | 3.19 | 2.787 | 2.455 | 2.164
x1 = 0.0583 | 824.15 | 820.36 | 816.55 | 812.7 | 808.82 | 4.397 | 3.806 | 3.318 | 2.908 | 2.592
x1 = 0.1003 | 833.62 | 829.88 | 826.11 | 822.23 | 818.46 | 5.588 | 4.823 | 4.165 | 3.636 | 3.17
x1 = 0.1981 | 853.55 | 849.9 | 846.22 | 842.52 | 838.78 | 9.789 | 8.389 | 7.151 | 6.123 | 5.297
x1 = 0.2981 | 871.49 | 867.92 | 864.33 | 860.72 | 857.08 | 17.14 | 14.41 | 12.18 | 10.39 | 8.894
x1 = 0.399 | 887.71 | 884.21 | 880.69 | 877.17 | 873.62 | 28.33 | 23.48 | 19.6 | 16.5 | 14
x1 = 0.497 | 901.99 | 898.53 | 895.09 | 891.62 | 888.15 | 50.23 | 41.01 | 33.21 | 28.45 | 23.98
x1 = 0.6489 | 921.84 | 918.48 | 915.12 | 911.75 | 908.37 | 107.74 | 86.03 | 69.14 | 56.31 | 45.89
x1 = 0.7984 | 939.21 | 935.95 | 932.68 | 929.4 | 926.1 | 225.04 | 170.61 | 138.1 | 109.79 | 87.65
x1 = 0.9003 | 949.8 | 946.58 | 943.37 | 940.16 | 936.93 | 389.54 | 287.99 | 216.86 | 167.15 | 129.84

[2]
Settings | refractive index
x1 = 0.029 | 1.3999
x1 = 0.0583 | 1.4023
x1 = 0.1003 | 1.4053
x1 = 0.1981 | 1.4115
x1 = 0.2981 | 1.417
x1 = 0.399 | 1.4217
x1 = 0.497 | 1.4256
x1 = 0.6489 | 1.4314
x1 = 0.7984 | 1.4366
x1 = 0.9003 | 1.4399

CC(=O)O.CCCCN [butylammonium acetate] + CCO
[1]
Settings | mass density, 293.15 K [kg/m3] | mass density, 298.15 K [kg/m3] | mass density, 303.15 K [kg/m3] | mass density, 308.15 K [kg/m3] | mass density, 313.15 K [kg/m3] | viscosity, 293.15 K [mPa·s] | viscosity, 298.15 K [mPa·s] | viscosity, 303.15 K [mPa·s] | viscosity, 308.15 K [mPa·s] | viscosity, 313.15 K [mPa·s]
x1 = 0.0319 | 805.12 | 800.93 | 796.71 | 792.46 | 788.16 | 1.644 | 1.488 | 1.349 | 1.226 | 1.117
x1 = 0.0608 | 817.26 | 813.17 | 809.04 | 804.88 | 800.68 | 2.184 | 1.959 | 1.764 | 1.593 | 1.442
x1 = 0.0999 | 831.76 | 827.77 | 823.74 | 819.69 | 815.6 | 3.042 | 2.707 | 2.42 | 2.171 | 1.908
x1 = 0.1977 | 860.95 | 857.19 | 853.35 | 849.49 | 845.68 | 6.773 | 5.903 | 5.176 | 4.557 | 4.013
x1 = 0.2965 | 883.07 | 879.43 | 875.76 | 872.09 | 868.39 | 13.92 | 11.88 | 10.23 | 8.831 | 7.695
x1 = 0.4008 | 901.46 | 897.94 | 894.4 | 890.81 | 887.18 | 26.61 | 22.28 | 18.84 | 16.06 | 13.75
x1 = 0.5005 | 915.65 | 912.21 | 908.76 | 905.3 | 901.83 | 49.22 | 40.2 | 33.21 | 27.76 | 23.37
x1 = 0.6454 | 932.09 | 928.75 | 925.39 | 922.03 | 918.66 | 113.11 | 90.9 | 72.83 | 59.18 | 48.51
x1 = 0.8019 | 945.97 | 942.74 | 939.48 | 936.22 | 932.94 | 264.17 | 201.81 | 156.42 | 122.42 | 97.36
x1 = 0.9009 | 953.34 | 950.15 | 946.94 | 943.74 | 940.53 | 475.32 | 347.84 | 260.75 | 197.78 | 152.81

[2]
Settings | refractive index
x1 = 0.0319 | 1.3681
x1 = 0.0608 | 1.3731
x1 = 0.0999 | 1.3804
x1 = 0.1977 | 1.3965
x1 = 0.2965 | 1.4073
x1 = 0.4008 | 1.4152
x1 = 0.5005 | 1.4219
x1 = 0.6454 | 1.4292
x1 = 0.8019 | 1.436
x1 = 0.9009 | 1.4396

CC(=O)O.CCCCN [butylammonium acetate] + CO
[1]
Settings | mass density, 293.15 K [kg/m3] | mass density, 298.15 K [kg/m3] | mass density, 303.15 K [kg/m3] | mass density, 308.15 K [kg/m3] | mass density, 313.15 K [kg/m3] | viscosity, 293.15 K [mPa·s] | viscosity, 298.15 K [mPa·s] | viscosity, 303.15 K [mPa·s] | viscosity, 308.15 K [mPa·s] | viscosity, 313.15 K [mPa·s]
x1 = 0.0302 | 814.76 | 810.3 | 805.81 | 801.29 | 796.74 | 0.883 | 0.82 | 0.763 | 0.712 | 0.666
x1 = 0.0597 | 832.65 | 828.3 | 823.98 | 819.63 | 815.28 | 1.237 | 1.141 | 1.053 | 0.975 | 0.905
x1 = 0.1011 | 852.44 | 848.33 | 844.2 | 840.05 | 835.89 | 1.933 | 1.759 | 1.607 | 1.474 | 1.357
x1 = 0.1992 | 884.85 | 881.05 | 877.23 | 873.38 | 869.54 | 4.825 | 4.283 | 3.828 | 3.437 | 3.099
x1 = 0.301 | 906.27 | 902.66 | 899.04 | 895.45 | 891.77 | 11.1 | 9.608 | 8.354 | 7.294 | 6.415
x1 = 0.4023 | 920.99 | 917.52 | 914.03 | 910.53 | 907.04 | 23.22 | 19.57 | 16.66 | 14.34 | 12.54
x1 = 0.4995 | 931.42 | 928.03 | 924.64 | 921.23 | 917.83 | 44.76 | 36.68 | 30.45 | 25.59 | 21.65
x1 = 0.6524 | 943.29 | 940 | 936.69 | 933.39 | 930.08 | 115.48 | 92.51 | 69.01 | 53.46 | 47.61
x1 = 0.7993 | 951.52 | 948.31 | 945.07 | 941.83 | 938.59 | 256.45 | 195.97 | 151.07 | 118.32 | 94.24
x1 = 0.8988 | 955.88 | 952.69 | 949.49 | 946.3 | 943.09 | 418.49 | 312.52 | 242.56 | 183.85 | 142.67

[2]
Settings | refractive index
x1 = 0.0302 | 1.3413
x1 = 0.0597 | 1.3526
x1 = 0.1011 | 1.3665
x1 = 0.1992 | 1.3878
x1 = 0.301 | 1.403
x1 = 0.4023 | 1.4144
x1 = 0.4995 | 1.4212
x1 = 0.6524 | 1.4316
x1 = 0.7993 | 1.4365
x1 = 0.8988 | 1.4398

CC(=O)O.CCCCN [butylammonium acetate] + CCCO
[1]
Settings | mass density, 293.15 K [kg/m3] | mass density, 298.15 K [kg/m3] | mass density, 303.15 K [kg/m3] | mass density, 308.15 K [kg/m3] | mass density, 313.15 K [kg/m3] | viscosity, 293.15 K [mPa·s] | viscosity, 298.15 K [mPa·s] | viscosity, 303.15 K [mPa·s] | viscosity, 308.15 K [mPa·s] | viscosity, 313.15 K [mPa·s]
x1 = 0.0315 | 814.1 | 810.13 | 806.12 | 802.09 | 798.01 | 2.862 | 2.496 | 2.202 | 1.955 | 1.672
x1 = 0.0601 | 822.82 | 818.91 | 814.95 | 810.95 | 806.91 | 3.515 | 3.158 | 2.773 | 2.447 | 2.167
x1 = 0.0977 | 833.38 | 829.52 | 825.63 | 821.7 | 817.72 | 4.733 | 4.116 | 3.595 | 3.157 | 2.828
x1 = 0.198 | 857.48 | 853.76 | 850 | 846.22 | 842.42 | 8.602 | 7.371 | 6.367 | 5.493 | 4.77
x1 = 0.3002 | 877.71 | 874.1 | 870.46 | 866.8 | 863.11 | 17.5 | 14.77 | 12.51 | 10.66 | 9.154
x1 = 0.4021 | 894.7 | 891.19 | 887.65 | 884.1 | 880.52 | 31.54 | 26.08 | 22.23 | 18.48 | 15.72
x1 = 0.497 | 908.39 | 904.94 | 901.48 | 898.01 | 894.53 | 47.48 | 38.69 | 31.74 | 26.4 | 22.13
x1 = 0.6487 | 927.09 | 923.74 | 920.37 | 917 | 913.6 | 108.49 | 87.22 | 70.42 | 56.62 | 46.76
x1 = 0.799 | 942.52 | 939.27 | 936.01 | 932.73 | 929.43 | 244.69 | 186.83 | 148.78 | 116.88 | 93.14
x1 = 0.8981 | 951.47 | 948.25 | 945.03 | 941.83 | 938.61 | 445.2 | 326.53 | 244.83 | 186.41 | 144.84

[2]
Settings | refractive index
x1 = 0.0315 | 1.3875
x1 = 0.0601 | 1.3912
x1 = 0.0977 | 1.3953
x1 = 0.198 | 1.4045
x1 = 0.3002 | 1.4122
x1 = 0.4021 | 1.4185
x1 = 0.497 | 1.4236
x1 = 0.6487 | 1.4305
x1 = 0.799 | 1.4362
x1 = 0.8981 | 1.4395
